Values joined by “and” are separate entries in the source; they are usually repeats but may differ in a detail not shown here. Equal entries are not always repeated.
Test system: dogs
Test: Study on 60 dogs: owner estimation of playfulness and sociability before and after DHEAS treatment
Assay type: in vivo, dog
Details: for playfulness and sociability: dogs
Protocol: Table 1. […] Playfulness was defined as a dog initiating solitary play. Sociability was defined as a dog initiating play with another pet or with its owner. […] Of twenty-six dogs treated the highest doses (25 or 50 mg/kg) eighteen owners reported the changes in their dogs to be dramatic.
Physiological levels of circulating DHEAS in canines are 10 ng/ml (±2 ng/ml) (Frank et al, 2003; Odell & Parker, 1985; Tremblay & Belanger, 1985; Mialot et al, 1988; Mongillo et al, 2014; Rondelli et al, 2015). Our invention employs doses of DHEAS that produce supra-physiologic concentrations of circulating DHEAS at least nine times higher than this, i.e., at least 90 ng/ml, i.e. equivalent to the lower range of primate-specific high levels of circulating DHEAS (FIG. 1). This equates to a minimum treatment dose of 0.009 mg/kg. Our studies reported here were performed with DHEAS administered at ranges from 0.5-50 mg/kg. For all non-primate animals, this invention employs supra-physiologic doses of DHEAS that produce concentrations of circulating DHEAS that are at least ten-fold higher than those found naturally
Thus, in 56 of 60 treated dogs, owners reported observing a very clear improvement in their dog's playfulness and sociability, an observation that in most cases was also remarked upon by visitors to the owner's home. The uniformity of this finding is surprising, because the natural levels of canine DHEAS are quite low, and so this species has never been exposed to such high levels as we report here. Clearly, dogs experience an unmistakable positive response to exogenous DHEAS.
We administered our DHEAS orally, as a liquid, or in capsules. A preferred embodiment of this invention are dosage formulations that mask the bitter flavor of DHEAS from dogs or other pet animals receiving it orally. As an example, Onda et al. (U.S. Pat. No. 4,385,078A) teach methods for providing enteric coatings for solid dosage forms. Tai (U.S. Pat. No. 5,013,557A) teaches taste masking compositions comprising spray dried microcapsules containing sucralfate, and Alkire (U.S. Pat. No. 5,607,697A) and Cherukuri et al (U.S. Pat. No. 5,013,716A) teach the manufacture of taste masking microparticles for oral dosage forms. Patell (U.S. Pat. No. 4,916,161A) teaches the use of taste-masking pharmaceutical agents via wet granulation. In short, many methods are available to produce a formulation that will effectively prevent dogs or other pet animals from experiencing the bitter taste of DHEAS. Very little work has been done using DHEAS as the pharmaceutical ingredient, with most studies utilizing DHEA. For example, US20140235598A1 teaches the manufacture of tablets containing DHEA, but a similar formulation could be rendered with DHEAS.

Question: Dehydroepiandrosterone sulfate [DHEAS] was tested. Which “dogs whose owners reported a clear increase in playfulness and/or sociability during the treatment period” value (60 treated dogs, DHEAS oral (liquid or capsules), 0.5-50 mg/kg, owner estimation) did it give?
Answer: fifty-six of sixty and 56 of 60

Question: And the playfulness and sociability (doses of 5 mg/kg and above)?
Answer: profound increase

Question: What about the playfulness and sociability (lower dose of 1 mg/kg) of the same substance?
Answer: an effect could be observed

Question: And the “owners who reported the changes in their dogs to be dramatic” value (of twenty-six dogs treated with the highest doses (25 or 50 mg/kg))?
Answer: eighteen
